Results on eleven compounds are retold here after patent US10093630B2, “Pyrazole compounds and methods of making and using same” (ABIDE THERAPEUTICS, INC., priority 2014, dated 2018).

Test in all cases: In vitro competitive activity-based protein profiling (gel-based, FP-Rh or HT-01 probe)
Common to all, as to format: biochemical

In one experiment the target is T1, PLA2G7 (Mus musculus, UniProt Q60963).
T1 construct: Proteomes (mouse brain membrane fraction or cell lysates); from tissue; host or cells: mouse brain membrane fraction (or cell lysates, not specified)
T1 sequence (Q60963 22-440): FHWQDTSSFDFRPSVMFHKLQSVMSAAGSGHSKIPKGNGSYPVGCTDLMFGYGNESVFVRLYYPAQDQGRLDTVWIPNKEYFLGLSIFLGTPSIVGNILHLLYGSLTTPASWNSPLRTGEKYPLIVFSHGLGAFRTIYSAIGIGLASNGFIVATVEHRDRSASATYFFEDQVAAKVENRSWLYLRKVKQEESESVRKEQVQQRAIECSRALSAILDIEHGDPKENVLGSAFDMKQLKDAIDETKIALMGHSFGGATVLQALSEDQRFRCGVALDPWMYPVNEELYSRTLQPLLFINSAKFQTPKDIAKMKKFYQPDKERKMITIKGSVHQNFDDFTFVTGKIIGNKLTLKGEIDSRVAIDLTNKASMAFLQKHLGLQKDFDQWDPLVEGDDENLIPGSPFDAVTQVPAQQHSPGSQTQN
As to conditions: for inhibition at 1 µM: 1 μM inhibitor, read-out: % Inhibition at 1 μM, D = PLA2G7; for inhibition at 1 µM / inhibition at 10 µM: gel-based competitive ABPP; for inhibition at 10 µM: 10 μM inhibitor, read-out: % Inhibition at 10 μM, D = PLA2G7; for IC50: mouse brain membrane fraction or cell lysates, 30 min preincubation at 37° C. A digest of the protocol: (§1)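 Steps: inhibitor dilutions + proteome (1.0 mg/mL), 30 min, 37° C; add FP-Rh or HT-01 (50 μM DMSO stock), 30 min, 37° C; quench in SDS buffer; SDS-PAGE; gel imaging; band densitometry.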

The next experiment addresses T2, MAGL (Mus musculus, UniProt O35678).
T2 construct: Proteomes (mouse brain membrane fraction or cell lysates); from tissue; host or cells: mouse brain membrane fraction (or cell lysates, not specified)
T2 sequence (O35678 1-303): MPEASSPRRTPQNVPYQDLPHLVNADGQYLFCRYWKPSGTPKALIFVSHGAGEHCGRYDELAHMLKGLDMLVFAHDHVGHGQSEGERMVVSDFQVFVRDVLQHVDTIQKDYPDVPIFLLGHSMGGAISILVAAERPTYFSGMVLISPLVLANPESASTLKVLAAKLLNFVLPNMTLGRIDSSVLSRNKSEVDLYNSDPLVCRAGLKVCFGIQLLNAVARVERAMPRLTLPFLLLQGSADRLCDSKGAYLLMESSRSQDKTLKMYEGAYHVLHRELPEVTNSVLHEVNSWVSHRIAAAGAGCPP
Particulars: for inhibition at 1 µM: 1 μM inhibitor; for inhibition at 1 µM / inhibition at 10 µM: gel-based competitive ABPP; for inhibition at 10 µM: 10 μM inhibitor; for IC50: mouse brain membrane fraction or cell lysates, 30 min preincubation at 37° C., read-out: Mouse (IC50 value, nM) MAGL. The method in brief:
as §1

For another experiment, the target named is T3, FAAH (Mus musculus, UniProt O08914).
T3 construct: Proteomes (mouse brain membrane fraction or cell lysates); from tissue; host or cells: mouse brain membrane fraction (or cell lysates, not specified)
T3 sequence (O08914 1-579): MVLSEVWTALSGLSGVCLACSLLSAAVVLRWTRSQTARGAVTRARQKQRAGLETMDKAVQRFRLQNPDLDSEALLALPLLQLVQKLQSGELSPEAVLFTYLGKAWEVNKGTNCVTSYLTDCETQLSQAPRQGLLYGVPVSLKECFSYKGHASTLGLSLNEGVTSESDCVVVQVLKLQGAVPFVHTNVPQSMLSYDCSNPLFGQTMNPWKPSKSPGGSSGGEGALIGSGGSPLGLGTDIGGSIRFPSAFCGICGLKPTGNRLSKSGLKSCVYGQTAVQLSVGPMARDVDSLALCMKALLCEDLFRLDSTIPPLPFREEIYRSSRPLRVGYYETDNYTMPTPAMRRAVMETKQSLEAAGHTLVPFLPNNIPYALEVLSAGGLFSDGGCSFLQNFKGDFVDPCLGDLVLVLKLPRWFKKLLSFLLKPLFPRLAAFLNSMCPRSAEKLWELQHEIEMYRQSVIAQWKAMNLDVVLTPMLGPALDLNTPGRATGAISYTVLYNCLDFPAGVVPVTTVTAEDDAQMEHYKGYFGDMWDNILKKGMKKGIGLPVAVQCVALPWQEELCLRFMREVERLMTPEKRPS
As to conditions: for inhibition at 1 µM: 1 μM inhibitor, read-out: % Inhibition at 1 μM, B = FAAH; for inhibition at 1 µM / inhibition at 10 µM: gel-based competitive ABPP; for inhibition at 10 µM: 10 μM inhibitor, read-out: % Inhibition at 10 μM, B = FAAH; for IC50: mouse brain membrane fraction or cell lysates, 30 min preincubation at 37° C., read-out: Mouse (IC50 value, nM) FAAH. A digest of the protocol:
as §1

The target of a further experiment is T4, ABHD6 (Mus musculus, UniProt Q8R2Y0).
T4 construct: Proteomes (mouse brain membrane fraction or cell lysates); from tissue; host or cells: mouse brain membrane fraction (or cell lysates, not specified)
T4 sequence (Q8R2Y0 1-336): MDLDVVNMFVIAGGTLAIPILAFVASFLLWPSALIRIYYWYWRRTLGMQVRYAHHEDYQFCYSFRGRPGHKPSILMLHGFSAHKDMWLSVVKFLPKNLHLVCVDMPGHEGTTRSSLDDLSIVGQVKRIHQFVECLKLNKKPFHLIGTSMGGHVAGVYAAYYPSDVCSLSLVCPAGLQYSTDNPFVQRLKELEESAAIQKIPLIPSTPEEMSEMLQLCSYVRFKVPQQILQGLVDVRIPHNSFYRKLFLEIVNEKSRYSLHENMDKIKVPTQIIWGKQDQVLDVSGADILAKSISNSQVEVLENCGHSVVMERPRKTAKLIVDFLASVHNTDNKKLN
Particulars: for inhibition at 1 µM: 1 μM inhibitor, read-out: % Inhibition at 1 μM, C = ABHD6; for inhibition at 1 µM / inhibition at 10 µM: gel-based competitive ABPP; for inhibition at 10 µM: 10 μM inhibitor, read-out: % Inhibition at 10 μM, C = ABHD6; for IC50: mouse brain membrane fraction or cell lysates, 30 min preincubation at 37° C., read-out: Mouse (IC50 value, nM) ABHD6. The method in brief:
as §1

The inhibition is the change of the read-out against control, counted positive when it falls. By IC50 is commonly meant the concentration at which inhibition is half-maximal.

For the compound `N#Cc1cnn(C(=O)N2CCN(Cc3ccc(C(=O)N4CCC4)cc3Cl)CC2)c1` [Example 283, 1-(4-(4-(Azetidine-1-carbonyl)-2-chlorobenzyl)piperazine-1-carbonyl)-1H-pyrazole-4-carbonitrile], the inhibition at 1 µM at PLA2G7, on MAGL, at FAAH and at ABHD6 was above 75% in each case. For the same compound, the inhibition at 10 µM on PLA2G7, on MAGL, at FAAH and on ABHD6 was above 75% in each case.
Take `N#Cc1cnn(C(=O)N2CCN(Cc3ccc(C(=O)N4CCCCC4)cc3F)CC2)c1` [Example 284, 1-(4-(2-Fluoro-4-(piperidine-1-carbonyl)benzyl)piperazine-1-carbonyl)-1H-pyrazole-4-carbonitrile]: the inhibition at 1 µM at PLA2G7, on MAGL, at FAAH and at ABHD6 was above 75% in each case. Also, the inhibition at 10 µM on PLA2G7, on MAGL, at FAAH and at ABHD6 was above 75% throughout.
With `N#Cc1cnn(C(=O)N2CCN(Cc3ccc(C(=O)N4CCC4)cc3F)CC2)c1` [Example 285, 1-(4-(4-(Azetidine-1-carbonyl)-2-fluorobenzyl)piperazine-1-carbonyl)-1H-pyrazole-4-carbonitrile], the inhibition at 1 µM on PLA2G7, on MAGL, at FAAH and at ABHD6 was above 75% throughout. Also, the inhibition at 10 µM on PLA2G7, on MAGL, at FAAH and at ABHD6 was above 75% each time.
As for `NC(=O)c1cnn(C(=O)N2CCN(Cc3cccc(Oc4ccccc4)c3)CC2)c1` [Example 286, 1-(4-(3-phenoxybenzyl)piperazine-1-carbonyl)-1H-pyrazole-4-carboxamide], the inhibition at 1 µM is 25 to 75% at PLA2G7, above 75% on MAGL, above 75% at FAAH and above 75% on ABHD6. Further, the IC50 was 100 to 1000 nM on PLA2G7, below 100 nM at MAGL, below 100 nM at FAAH and below 100 nM at ABHD6.
Regarding `CNC(=O)c1cnn(C(=O)N2CCN(Cc3cccc(Oc4ccccc4)c3)CC2)c1` [Example 287, N-Methyl-1-(4-(3-phenoxybenzyl)piperazine-1-carbonyl)-1H-pyrazole-4-carboxamide], the inhibition at 1 µM on PLA2G7, on MAGL, at FAAH and at ABHD6 was above 75% in each case. Besides, the IC50 at PLA2G7, on MAGL, at FAAH and on ABHD6 was below 100 nM in each case.
As for `O=C(O)c1cnn(C(=O)N2CCN(Cc3ccc(Cl)cc3)CC2)c1` [Example 288, 1-(4-(4-Chlorobenzyl)piperazine-1-carbonyl)-1H-pyrazole-4-carboxylic acid], the inhibition at 1 µM at PLA2G7 was below 25%; on MAGL, below 25%; at FAAH it was 25 to 75%; at ABHD6, below 25%. Moreover, the inhibition at 10 µM at PLA2G7 was below 25%; at MAGL, below 25%; at FAAH, above 75%; at ABHD6, below 25%.
With `O=C(c1cnn(C(=O)N2CCN(Cc3ccc(-c4ccccc4)cc3Cl)CC2)c1)N1CCCC1` [Example 289, (4-((3-Chlorobiphenyl-4-yl)methyl)piperazin-1-yl)(4-(pyrrolidine-1-carbonyl)-1H-pyrazol-1-yl)methanone], the inhibition at 1 µM at PLA2G7, at MAGL, on FAAH and at ABHD6 was above 75% in each case. Besides, the inhibition at 10 µM at PLA2G7, on MAGL, on FAAH and on ABHD6 was above 75% throughout.
Regarding `COc1cc(-c2ccccc2)ccc1CN1CCN(C(=O)n2cc(C(=O)N3CCCC3)cn2)CC1` [Example 290, (4-((3-Methoxybiphenyl-4-yl)methyl)piperazin-1-yl)(4-(pyrrolidine-1-carbonyl)-1H-pyrazol-1-yl)methanone], the inhibition at 1 µM is below 25% on PLA2G7, above 75% on MAGL, above 75% at FAAH and above 75% on ABHD6. Besides, the inhibition at 10 µM on PLA2G7, at MAGL, on FAAH and at ABHD6 was above 75% in each case.
For the compound `O=C(c1cnn(C(=O)N2CCN(Cc3ccc(-c4ccccc4)cc3OCc3ccccc3)CC2)c1)N1CCCC1` [Example 291, (4-((3-(Benzyloxy)biphenyl-4-yl)methyl)piperazin-1-yl)(4-(pyrrolidine-1-carbonyl)-1H-pyrazol-1-yl)methanone], the inhibition at 1 µM on PLA2G7 was below 25%; on MAGL it was above 75%; at FAAH it was above 75%; on ABHD6, above 75%. Besides, the inhibition at 10 µM at PLA2G7 was 25 to 75%; at MAGL, above 75%; on FAAH it was above 75%; at ABHD6, above 75%.
For the compound `N#Cc1cnn(C(=O)N2CCCCCC2)c1` [Example 292, 1-(Azepane-1-carbonyl)-1H-pyrazole-4-carbonitrile], the inhibition at 1 µM is below 25% on PLA2G7, 25 to 75% on MAGL, above 75% on FAAH and 25 to 75% on ABHD6. Besides, the inhibition at 10 µM at PLA2G7, on MAGL, on FAAH and on ABHD6 was above 75% each time. Besides, the IC50 is above 1000 nM on PLA2G7, above 1000 nM on MAGL, 100 to 1000 nM on FAAH and above 1000 nM at ABHD6.
As for `Cc1cnn(C(=O)NCc2ccc(OCc3ccccc3)cc2)c1` [Example 293, N-(4-(Benzyloxy)benzyl)-4-methyl-1H-pyrazole-1-carboxamide], the inhibition at 1 µM on PLA2G7, at MAGL, at FAAH and at ABHD6 was below 25% in each case.
